Experimental data as given in PubChem BioAssay AID2060483 (Molecular Pharmacology Branch, DTP, NCI, 2025).
Blank lines part the entries; values can stand above or below the molecule they belong to.

System: K24384-001-R-PDC complex spheroids, viability
Assay: Anticancer human tumor K24384-001-R-PDC patient-derived pancreatic adenocarcinoma cell line growth inhibition [GQUAD]
Conditions: for IC50: curve of first compound; for viability, T/C: stronger effect = lower value
Method in brief: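 Multi-cell-type spheroids of tumor cells with HUVEC and mesenchymal stem cells, treated with drug combinations. Concentrations descend in half-log steps from near clinical Cmax, or from 10 microM where Cmax is unknown; viability read-out.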

[1] = second compound 0.0316 µM, first compound 0.0316 µM
[2] = second compound 0.0316 µM, first compound 0.1 µM
[3] = second compound 0.0316 µM, first compound 0.316 µM
[4] = second compound 0.0316 µM, first compound 1 µM
[5] = second compound 0.0316 µM, first compound 3.16 µM
[6] = second compound 0.0316 µM, first compound 10 µM
[7] = second compound 0.1 µM, first compound 0.0316 µM
[8] = second compound 0.1 µM, first compound 0.1 µM
[9] = second compound 0.1 µM, first compound 0.316 µM
[10] = second compound 0.1 µM, first compound 1 µM
[11] = second compound 0.1 µM, first compound 3.16 µM
[12] = second compound 0.1 µM, first compound 10 µM
[13] = second compound 0.316 µM, first compound 0.0316 µM
[14] = second compound 0.316 µM, first compound 0.1 µM
[15] = second compound 0.316 µM, first compound 0.316 µM
[16] = second compound 0.316 µM, first compound 1 µM
[17] = second compound 0.316 µM, first compound 3.16 µM
[18] = second compound 0.316 µM, first compound 10 µM
[19] = second compound 1 µM, first compound 0.0316 µM
[20] = second compound 1 µM, first compound 0.1 µM
[21] = second compound 1 µM, first compound 0.316 µM
[22] = second compound 1 µM, first compound 1 µM
[23] = second compound 1 µM, first compound 3.16 µM
[24] = second compound 1 µM, first compound 10 µM
[25] = second compound 3.16 µM, first compound 0.0316 µM
[26] = second compound 3.16 µM, first compound 0.1 µM
[27] = second compound 3.16 µM, first compound 0.316 µM
[28] = second compound 3.16 µM, first compound 1 µM
[29] = second compound 3.16 µM, first compound 3.16 µM
[30] = second compound 3.16 µM, first compound 10 µM
[31] = second compound 10 µM, first compound 0.0316 µM
[32] = second compound 10 µM, first compound 0.1 µM
[33] = second compound 10 µM, first compound 0.316 µM
[34] = second compound 10 µM, first compound 1 µM
[35] = second compound 10 µM, first compound 3.16 µM
[36] = second compound 10 µM, first compound 10 µM
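Further: spheroids exposed to compounds for seven days.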

IC50 (second compound 0.0316 µM): 280 nM | IC50 (second compound 0.1 µM): 167 nM | IC50 (second compound 0.316 µM): 85.2 nM | IC50 (second compound 1 µM): < 31.6 nM | IC50 (second compound 3.16 µM): < 31.6 nM | IC50 (second compound 10 µM): < 31.6 nM
Compound: COc1cccc2c1C(=O)c1c(O)c3c(c(O)c1C2=O)CC(O)(C(=O)CO)CC3OC1CC(N)C(O)C(C)O1 (stereo unspecified) + Cc1cnc(CNC(=O)c2c(=O)c3ccc(N4CCCN(C)CC4)nc3n3c2sc2ccccc23)cn1
viability, T/C [1]: 74.3% | viability, T/C [2]: 62.1% | viability, T/C [3]: 50.3% | viability, T/C [4]: 17.6% | viability, T/C [5]: 5.43% | viability, T/C [6]: 5.41% | viability, T/C [7]: 71.2% | viability, T/C [8]: 55% | viability, T/C [9]: 42.7% | viability, T/C [10]: 18.8% | viability, T/C [11]: 6.08% | viability, T/C [12]: 5.63% | viability, T/C [13]: 58.2% | viability, T/C [14]: 48% | viability, T/C [15]: 33.3% | viability, T/C [16]: 20.6% | viability, T/C [17]: 4.64% | viability, T/C [18]: 6.62% | viability, T/C [19]: 35.4% | viability, T/C [20]: 46.6% | viability, T/C [21]: 35.1% | viability, T/C [22]: 19.4% | viability, T/C [23]: 2.42% | viability, T/C [24]: 3.74% | viability, T/C [25]: 40% | viability, T/C [26]: 44.3% | viability, T/C [27]: 36.1% | viability, T/C [28]: 18.7% | viability, T/C [29]: 0.26% | viability, T/C [30]: 1.49% | viability, T/C [31]: 33.3% | viability, T/C [32]: 25.9% | viability, T/C [33]: 24.4% | viability, T/C [34]: 0.41% | viability, T/C [35]: 0.26% | viability, T/C [36]: 0.2%

IC50 (second compound 0.0316 µM): 1720 nM | IC50 (second compound 0.1 µM): 1680 nM | IC50 (second compound 0.316 µM): 31.6 nM | IC50 (second compound 1 µM): < 31.6 nM | IC50 (second compound 3.16 µM): < 31.6 nM | IC50 (second compound 10 µM): < 31.6 nM
Compound: CC(C)(O)C1CCC(Nc2ccc3ncc(-c4cccc(C(F)(F)F)c4)n3n2)CC1 (stereo unspecified) + Cc1cnc(CNC(=O)c2c(=O)c3ccc(N4CCCN(C)CC4)nc3n3c2sc2ccccc23)cn1
viability, T/C [1]: 89% | viability, T/C [2]: 85.6% | viability, T/C [3]: 90.3% | viability, T/C [4]: 69.2% | viability, T/C [5]: 26.6% | viability, T/C [6]: 30.2% | viability, T/C [7]: 55.6% | viability, T/C [8]: 75.8% | viability, T/C [9]: 72.7% | viability, T/C [10]: 76.4% | viability, T/C [11]: 22.4% | viability, T/C [12]: 28.3% | viability, T/C [13]: 42.4% | viability, T/C [14]: 49.8% | viability, T/C [15]: 46% | viability, T/C [16]: 60.9% | viability, T/C [17]: 28.8% | viability, T/C [18]: 28.1% | viability, T/C [19]: 37.1% | viability, T/C [20]: 53% | viability, T/C [21]: 36.4% | viability, T/C [22]: 42.4% | viability, T/C [23]: 22.3% | viability, T/C [24]: 15.1% | viability, T/C [25]: 30.4% | viability, T/C [26]: 40.3% | viability, T/C [27]: 36.9% | viability, T/C [28]: 37.7% | viability, T/C [29]: 0.14% | viability, T/C [30]: 0.16% | viability, T/C [31]: 12.8% | viability, T/C [32]: 12.9% | viability, T/C [33]: 5.01% | viability, T/C [34]: 0.25% | viability, T/C [35]: 0.24% | viability, T/C [36]: 0.23%

Compound: C#Cc1c(F)ccc2cc(O)cc(-c3ncc4c(N5CC6CCC(C5)N6)nc(OCC56CCCN5CC(F)C6)nc4c3F)c12 (stereo unspecified) + Cc1[nH]c2ccc(F)cc2c1-c1nc2c3cccnc3c3ncccc3c2[nH]1
IC50 (second compound 0.0316 µM): 1360 nM | IC50 (second compound 0.1 µM): 1490 nM | IC50 (second compound 0.316 µM): 1540 nM | IC50 (second compound 1 µM): 1820 nM | IC50 (second compound 3.16 µM): 969 nM | IC50 (second compound 10 µM): 1080 nM | viability, T/C [1]: 99.9% | viability, T/C [2]: 99.6% | viability, T/C [3]: 129% | viability, T/C [4]: 58.5% | viability, T/C [5]: 34.4% | viability, T/C [6]: 18.2% | viability, T/C [7]: 93.9% | viability, T/C [8]: 112% | viability, T/C [9]: 85.1% | viability, T/C [10]: 58% | viability, T/C [11]: 34.3% | viability, T/C [12]: 14.5% | viability, T/C [13]: 97.1% | viability, T/C [14]: 101% | viability, T/C [15]: 74.4% | viability, T/C [16]: 57.4% | viability, T/C [17]: 39.2% | viability, T/C [18]: 19.1% | viability, T/C [19]: 91% | viability, T/C [20]: 101% | viability, T/C [21]: 83% | viability, T/C [22]: 64.1% | viability, T/C [23]: 37.5% | viability, T/C [24]: 16.9% | viability, T/C [25]: 75.6% | viability, T/C [26]: 87.6% | viability, T/C [27]: 64.7% | viability, T/C [28]: 47.1% | viability, T/C [29]: 31.3% | viability, T/C [30]: 11.7% | viability, T/C [31]: 80.5% | viability, T/C [32]: 68.6% | viability, T/C [33]: 69% | viability, T/C [34]: 52.4% | viability, T/C [35]: 27.5% | viability, T/C [36]: 10.8%
